# Laboratory results reported in article PMC8495455, “Discovery of a transdermally deliverable pentapeptide for activating AdipoR1 to promote hair growth” (EMBO Molecular Medicine, 2021).
# Experiments:
# [1] = system: AMPK phosphorylation in ORS cells; assay: Western blot p-AMPK, ORS cells; assay type: cell-based, human; details: P5 0 - 50 μM, APN 2.5 μg/ml
# Description: Following the confirmation of the molecular interaction between AdipoR1 and P5, we evaluated the activation of the intracellular signaling pathway by P5. We investigated whether APN treatment on ORS and DP cells could activate AMPK or ERK signaling pathways, which are previously known to be downstream effectors of AdipoR1 (Mao et al, [2006]; Deepa & Dong, [2009]; Shibata et al, [2012]). […] Next, for determination of whether both P5 and APN mediates the phosphorylation of AMPK through AdipoR1 in ORS and DP cells, the cells were transfected with AdipoR1 siRNA (Appendix Fig S1). […] Collectively, P5 activates AMPK signaling pathway through AdipoR1 in ORS and DP cells in vitro.
# Human ORS and DP cells or skin tissue were lysed (RIPA lysis buffer; #20‐188; Merck Millipore). The obtained protein was then separated by 8% SDS–PAGE and transferred to a polyvinylidene fluoride membrane (Amersham). The protein transferred membranes were incubated overnight with the specific antibodies. […] Antibody‐antigen complexes detected by enhanced chemiluminescent substrate (Thermo Fisher) were captured and quantified by Amersham imager 680 systems (GE Healthcare).
# VEGF mRNA = assay: qRT-PCR growth factor gene expression in DP cells, VEGF; assay type: cell-based, human; details: for mRNA_VEGF: DP cells
# Description: (§1) Next, we investigated the downstream effects of P5 on hair growth factor genes and proteins in DP cells. […] We tested whether P5 can also increase the mRNA levels and proteins of hair growth factors in DP cells: IGF‐1, VEGF, HGF, platelet‐derived growth factor alpha (PDGFA), and fibroblast growth factor (FGF) 7, which are known to induce or maintain the anagen phase of the hair cycle (Jindo et al, [1994]; Philpott et al, [1994]; Yano et al, [2001]; Jang, [2005]; Tomita et al, [2006]; Iino et al, [2007]).
# (§2) Total RNA was isolated from P5‐treated DP cells using RNAiso Plus (#9109; TaKaRa). We used the total RNA (1 µg) for cDNA synthesis using a RevertAid First Strand cDNA Synthesis Kit (Thermo Fisher) according to the manufacturer's instructions. The mRNA expression levels were quantified on a 7500 Real‐time PCR System (Thermo Fisher) using TB Green Premix Ex Taq (TaKaRa Bio): human IGF‐1, VEGF, HGF, PDGFA, FGF7, and glyceraldehyde 3‐phosphate dehydrogenase (GAPDH) (Appendix Table S2). The relative expression levels of each gene were determined by the 2^‐ΔΔCT method.
# FGF7 mRNA = assay: qRT-PCR growth factor gene expression in DP cells, FGF7; assay type: cell-based, human; details: for mRNA_FGF7: DP cells
# Description: as §1, §2
# C57BL/6 (WT) mice = assay: Mouse hair cycle modulation, histology and anagen induction score, WT mice; assay type: in vivo
# Description: First, we topically applied P5 and minoxidil as a positive control (Messenger & Rundegren, [2004]) on wildtype (WT) mouse. […] Overall, the hair cycle score was higher in the P5‐treated mice than vehicle‐treated mice (Fig 4B). […] Collectively, P5 induces anagen hair cycle in vivo.
# Paraffin‐embedded mouse cutaneous back tissue was sectioned (4 μm thickness) and stained with hematoxylin and eosin. For IF staining, human ORS cells cultured in FiTC‐P5, sectioned paraffin‐embedded human HFs (7 μm thickness), and sectioned paraffin‐embedded mouse cutaneous dorsal tissue or human skin tissue (5 μm thickness) were incubated at 4°C overnight with the following primary antibodies diluted in the diluent reagent (Invitrogen): phospho‐AMPK (#2535, 1:100; Cell Signaling), Ki‐67 (#M7240, 1:200; Dako), versican (#ab177480, 1:200; Abcam), or AdipoR1 antibody (#ab126611, 1:200; Abcam). After three washes with PBS, the slides were incubated with the secondary Alexa Fluor 488‐labeled anti‐mouse or rabbit IgG antibody (#ab150077, #ab150113, 1:200; Invitrogen), or Alexa Fluor 594‐labeled anti‐rabbit IgG antibody (#a11012, 1:200; Invitrogen) at 25°C for 1 h. Nuclei were counterstained with 4′,6‐diamidino‐2‐phenylindole (DAPI; #D1306, 1:1,000; Invitrogen). Microscopic observations were performed with a Nikon Eclipse Ci‐L microscope (Nikon). IF intensity was observed and recorded with a Nikon Eclipse Ni‐E fluorescence microscope (Nikon).
# For the hair cycle modulation experiment, Adipoq ^−/− (stock #008195; JAX) (Ma et al, [2002]), Adipor1 ^−/− (Yamauchi et al, [2007]; Okada‐Iwabu et al, [2013]), or C57BL/6 (KOATECH) female mice was used (Müller‐Röver et al, [2001]). They were housed (up to four animals per cage; 23 ± 2°C, 8:00–20:00, 12 h/12 h light/dark cycle). Mice were fed a standard chow diet and provided food and water ad libitum. Mice were randomly allocated and shaved dorsally at 7.5 weeks of age. Only mice in telogen were included for the further experiments (Müller‐Röver et al, [2001]). From 8 weeks of age, the shaved dorsal area was treated with vehicle control (ethanol and polyethylene glycol, 30% and 70% v/v), P5 (0.1 mM), or minoxidil (3%) every day. The mouse hair growth score (a value from 0 to 100 based on the skin pigmentation and hair shaft density) was monitored and documented at designated days with the experimenters being blind to the conditions, following a previous study (Chai et al, [2019]). A higher score corresponds to a transition from telogen to anagen. On day 35, we obtained dorsal cutaneous tissue for histological analysis: anagen induction scores (calculated using an assigned arbitrary score; telogen = 1, anagen I–VI = 2–7) (Müller‐Röver et al, [2001]).
# [2] = P5 5μM, relative to Control = 1, replicate 1
# [3] = P5 5μM, relative to Control = 1, replicate 2
# [4] = P5 5μM, relative to Control = 1, replicate 3
# [5] = P5 5μM, relative to Control = 1, replicate 4
# [6] = P5 25μM, relative to Control = 1, replicate 1
# [7] = P5 25μM, relative to Control = 1, replicate 2
# [8] = P5 25μM, relative to Control = 1, replicate 3
# [9] = P5 25μM, relative to Control = 1, replicate 4
substance,measurement,setting,value
"GLYYF [P5, GST-fused (GST-P5) in pulldown assays]","Phosphorylation of AMPK, ORS cells",[1],concentration‐dependent phosphorylation of AMPK
same,mRNA_VEGF,VEGF mRNA; [2],1.194
same,mRNA_VEGF,VEGF mRNA; [3],1.24
same,mRNA_VEGF,VEGF mRNA; [4],0.9876
same,mRNA_VEGF,VEGF mRNA; [5],0.849
same,mRNA_VEGF,VEGF mRNA; [6],2.123
same,mRNA_VEGF,VEGF mRNA; [7],1.672
same,mRNA_VEGF,VEGF mRNA; [8],2.456
same,mRNA_VEGF,VEGF mRNA; [9],1.575
same,VEGF mRNA expression,"VEGF mRNA; P5-treated DP cells, n = 4",significantly increased
same,mRNA_FGF7,FGF7 mRNA; [2],1.288
same,mRNA_FGF7,FGF7 mRNA; [3],1.147
same,mRNA_FGF7,FGF7 mRNA; [4],3.986
same,mRNA_FGF7,FGF7 mRNA; [5],1.127
same,mRNA_FGF7,"FGF7 mRNA; P5 5μM, relative to Control = 1, replicate 5",3.017
same,mRNA_FGF7,"FGF7 mRNA; P5 5μM, relative to Control = 1, replicate 6",4.5839
same,mRNA_FGF7,FGF7 mRNA; [6],1.191
same,mRNA_FGF7,FGF7 mRNA; [7],1.18
same,mRNA_FGF7,FGF7 mRNA; [8],4.101
same,mRNA_FGF7,FGF7 mRNA; [9],1.133
same,mRNA_FGF7,"FGF7 mRNA; P5 25μM, relative to Control = 1, replicate 5",2.672
same,mRNA_FGF7,"FGF7 mRNA; P5 25μM, relative to Control = 1, replicate 6",4.897
same,FGF7 mRNA expression,"FGF7 mRNA; P5-treated DP cells, n = 6",significantly increased
same,Histological examination of HFs,C57BL/6 (WT) mice; H&E,anagen HFs were noticeable
same,Anagen induction scores vs vehicle,C57BL/6 (WT) mice; One-way ANOVA with Tukey's test,significantly higher
